These results are taken from publication PMC11558822, “Myc 9aaTAD activation domain binds to mediator of transcription with superior high affinity” (Molecular Medicine, 2024).

Residues, ends and D or L forms follow the SMILES beside them. No end group written: not given here. *: point of attachment. Biotin = O=C1N[C@H]2[C@H](CS[C@H]2CCCCC(=O)*)N1

For test [1], the system named is lacZ reporter driven by the lexA operator. Nature of the test: One hybrid transactivation (β-galactosidase reporter) assay with LexA hybrids in yeast strain L40. It counts as cell-based, Saccharomyces cerevisiae. Conditions: for activation function (times): one hybrid assay, presence versus absence of 9aaTAD (region 100–108) in the construct; for ß-Gal: raw β-galactosidase activity; for Reporter activation (average value in %): β-galactosidase activity of LexA hybrid, % of positive control p53 construct 6p53 set to 100%, mean ± SD, n = 3; for normalized value in %: β-galactosidase, % of 6p53 mean.

A further test addresses T1, KIX domain of CBP (Homo sapiens, UniProt Q92793).
T1 construct: GST (N, cleaved yes); His6 (N, cleaved yes); made in house
As to the kind of experiment: Bio-layer interferometry (BLI) of immobilized 9aaTAD peptides with KIX domain. It counts as binding. Conditions: for Kd: BLI Octet RED96e, biotinylated peptide on streptavidin SA biosensors, KIX 0.31-5.0 μM, 20 mM sodium phosphate pH 6.0, 50 mM NaCl, 30 °C, steady-state 1:1 fit, average of pentaplicate, read-out: KD(apparent). As to the method:
Bio-layer interferometry on Octet RED96e (ForteBio) was used for the analysis of interaction between KIX domain and proposed activation domains. All experiments were performed at 30 °C at 1000 rpm shaking. Streptavidin-bearing SA biosensors (ForteBio) were immersed for 300 s into the assay buffer (20 mM sodium phosphate pH 6.0, 50 mM NaCl) containing 60 μM biotinylated MLL, MYC or NMY peptide, respectively. After subsequent wash in the assay buffer, the final steady response of ligand reached 0.6–0.8 nm. Parallel blank sensor was treated the same way with pure assay buffer being used instead of biotinylated peptide solution in the immobilization step. For the binding assay, all sensors were used in parallel applying the following procedure: 120 s baseline in the assay buffer, 180 s association in the assay buffer containing increasing concentration of KIX domain for each cycle (0.31, 0.63, 1.25, 2.5 and 5.0 μM), 240 s dissociation in the assay buffer and 3 repetitions of 30 s regeneration in 50 mM NaOH followed by 30 s assay buffer wash. Each binding experiment was performed in pentaplicate and the data were processed using Data Analysis 11.1 evaluation SW (ForteBio). Obtained binding curves were blank-subtracted and fitted by a 1:1 binding model using steady state analysis. Final KD (apparent) values were calculated as an average of all measurements.

[2] abbreviates: replicate 1 (first sample of the construct).
Where [3] appears, read: replicate 2 (second sample of the construct).
The mark [4] stands for this setting: replicate 3 (third sample of the construct).

T1 sequence (Q92793 587-666 limits assumed): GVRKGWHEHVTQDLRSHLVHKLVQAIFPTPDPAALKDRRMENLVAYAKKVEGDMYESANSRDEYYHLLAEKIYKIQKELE

Take “c-Myc region 69-108: LexA hybrid construct of c-Myc region 69–108 with 9aaTAD (ELLPTPPLSPSRRSGLCSPSYVAVTPFSLRGDNDGGGGSF; LexA fusion; UniProt P01106 69-108, looked up, fragment)”: in test [1], the “activation function (times)” value turned out to be 3 times and the “Reporter activation (average value in %)” value was determined as 90%. For the same compound, in test [1] (setting [2]), the ß-Gal worked out at 255 and the “normalized value in %” value is listed as 93%. Also, in test [1] (setting [3]), the ß-Gal came out at 241 and the “normalized value in %” value was 88%. In test [1] (setting [4]), the ß-Gal is 242 and the “normalized value in %” value was 89%.
With “c-Myc region 98-108: LexA hybrid construct of alone-standing c-Myc 9aaTAD activation domain (RGDNDGGGGSF; also: LexA fusion; UniProt P01106 98-108, looked up, fragment)”, the “activation function (times)” value in test [1] amounted to 67 times. Also, the ß-Gal is 191 in test [1] (setting [2]), 185 in test [1] (setting [3]) and 169 in test [1] (setting [4]). In addition, the “Reporter activation (average value in %)” value in test [1] was determined as 67%. Moreover, the “normalized value in %” value in test [1] (setting [2]) is recorded as 70%; in test [1] (setting [3]), 68%; in test [1] (setting [4]), 62%.
For the compound “c-Myc region 69-103: LexA hybrid construct of c-Myc region 69–103 without 9aaTAD (ELLPTPPLSPSRRSGLCSPSYVAVTPFSLRGDNDG; LexA fusion; UniProt P01106 69-103, looked up, fragment)”, the figures for the ß-Gal in test [1] (setting [2]), in test [1] (setting [3]) and in test [1] (setting [4]) were 74, 83 and 71, respectively. Moreover, in test [1], the “Reporter activation (average value in %)” value stood at 29%. For the same compound, the “normalized value in %” value in test [1] (setting [2]) turned out to be 27%; in test [1] (setting [3]), 31%; in test [1] (setting [4]), 26%.
With “Biotin—GSS- GQ VSWQ T LQLQ NLQ [native Sp1, biotinylated native Sp1 9aaTAD peptide, negative control for BLI, reference compound]”, at KIX domain of CBP (BLI, KIX in the 3–16 μM range, negative control), the “Binding to KIX” value was “did not bind”.
Consider `CC[C@H](C)[C@H](NC(=O)[C@H](CC(=O)O)NC(=O)[C@H](CO)NC(=O)[C@@H]1CCCN1C(=O)[C@H](CC(C)C)NC(=O)[C@@H](NC(=O)[C@H](CC(N)=O)NC(=O)[C@H](CO)NC(=O)CNC(=O)CCCC[C@@H]1SC[C@@H]2NC(=O)N[C@@H]21)[C@@H](C)CC)C(=O)N[C@@H](CCSC)C(=O)N[C@@H](CC(=O)O)C(=O)N[C@@H](Cc1ccccc1)C(=O)N[C@H](C(=O)N[C@@H](CC(C)C)C(=O)N[C@@H](CCCCN)C(=O)N[C@@H](CC(N)=O)C(=O)N[C@H](C(=O)O)[C@@H](C)O)C(C)C` [MLL, reference compound] (Biotin-GSNILPSDIMDFVLKNT-OH), for which, on KIX domain of CBP, the Kd was determined as 1170 ± 210 nM.
With `CSCC[C@H](NC(=O)[C@H](CCC(=O)O)NC(=O)[C@@H](NC(=O)[C@@H](NC(=O)[C@H](Cc1c[nH]c2ccccc12)NC(=O)[C@H](CO)NC(=O)[C@@H]1CCCN1C(=O)[C@@H]1CCCN1C(=O)[C@H](CCC(=O)O)NC(=O)[C@H](CO)NC(=O)[C@H](CO)NC(=O)[C@H](CO)NC(=O)CNC(=O)CCCC[C@@H]1SC[C@@H]2NC(=O)N[C@@H]21)C(C)C)[C@@H](C)O)C(=O)N[C@@H](CC(C)C)C(=O)N[C@@H](CC(C)C)C(=O)N[C@@H](CCC(=O)O)C(=O)N[C@@H](CC(N)=O)C(=O)O` [N-Myc] (Biotin-GSSSEPPSWVTEMLLEN-OH), the Kd at KIX domain of CBP was determined as 880 ± 110 nM.
In the case of `CC(C)C[C@H](NC(=O)[C@H](CC(=O)O)NC(=O)[C@H](CC(=O)O)NC(=O)[C@H](CC(C)C)NC(=O)[C@H](CC(=O)O)NC(=O)[C@H](CC(C)C)NC(=O)[C@@H](NC(=O)[C@H](CC(=O)O)NC(=O)[C@H](Cc1c[nH]c2ccccc12)NC(=O)[C@H](CO)NC(=O)[C@@H](NC(=O)[C@H](CC(=O)O)NC(=O)CNC(=O)[C@H](CO)NC(=O)[C@H](CO)NC(=O)CNC(=O)CCCC[C@@H]1SC[C@@H]2NC(=O)N[C@@H]21)C(C)C)[C@@H](C)O)C(=O)N[C@@H](CC(=O)O)C(=O)O` [Sp1-Ac] (Biotin-GSSGDVSWDTLDLDDLD-OH), at KIX domain of CBP, the Kd amounted to 9770 ± 1570 nM.
As for `CSCC[C@H](NC(=O)[C@H](CCC(=O)O)NC(=O)[C@H](CC(C)C)NC(=O)[C@H](CCC(N)=O)NC(=O)[C@@H](NC(=O)[C@H](CO)NC(=O)[C@H](CO)NC(=O)[C@H](CO)NC(=O)CNC(=O)CCCC[C@@H]1SC[C@@H]2NC(=O)N[C@@H]21)[C@@H](C)O)C(=O)N[C@H](C(=O)N[C@H](C(=O)N[C@@H](CCC(=O)O)C(=O)N[C@@H](CC(C)C)C(=O)N[C@@H](CC(C)C)C(=O)NCC(=O)O)[C@@H](C)O)C(C)C` [c-Myc] (Biotin-GSSSTQLEMVTELLG-OH), the Kd at KIX domain of CBP came to 2160 ± 1170 nM.
